Among the data in ChEMBL document CHEMBL2203255, “Nerve growth factor-potentiating benzofuran derivatives from the medicinal fungus Phellinus ribis” (J Nat Prod, 2012) are Activity values, retold here.

Activity calls are given as the source filed them. No cut-off for these calls is given here.

This assay has as its system PC-12. The assay can be described thus: Neuritogenic activity in rat PC12 cells assessed as potentiation of NGF-induced neurite outgrowth at 1 to 30 uM after 4 days by phase-contrast microscopy in presence of 1 ng/ml NGF. The assay is classed as functional, cell-based.

For `CO[C@H]1[C@H](OC)C(=O)c2c(oc3c(O)cccc23)[C@@H]1O`, the result was Active.

Regarding `CO[C@@H]1[C@H](OC)C(=O)c2c(oc3ccccc23)[C@@H]1O`, the outcome was Active.

As to `CO[C@@H]1C(=O)c2c(oc3ccccc23)[C@H](O)[C@H]1O`, the result was Active.

Take `CO[C@H]1[C@H](O)c2oc3ccccc3c2C(=O)[C@@H]1OC`: the result was Active.
